{"source": "patent US11957766B2", "about": "“HNQO1-activatable fluorescent probe for imaging cancer cells in-vitro and in-vivo” (Texas Tech University System, priority 2019, dated 2024)", "key": {"[1]": {"test_system": "human NQO1 transfected MDA-MB-231 cells", "assay": "NIR-ASM in NQO1 gene transfected MDA-MB-231 cells", "format": "cell-based", "settings": "microscopy and flow cytometry", "method": "Chemical and genetic approaches confirm the specificity of NIR-ASM for NQO1 in live tumor cells. A fluorescence probe with high sensitivity, simple operation, and excellent specificity will be an asset for the detection of NQO1 in situ. To assess the substrate selectivity of NIR-ASM for NQO1, both A549 and H460 cells were pretreated with 100 nM of NQO1 inhibitor ES936 for 6 h, before incubating with 10 μM NIR-ASM. […] The effect of ES936 on endogenous NQO1 activity and subsequent reactivity with NIR-ASM was also determined by flow cytometry. […] The presence of NQO1 protein in the transfected MDA-MB-231 cells and its absence in the untransfected control was confirmed by immunoblotting (FIG. 13E). Subsequently, the NQO1-negative and positive MDA-MB-231 cell lines were incubated with NIR-ASM and analyzed by fluorescence microscopy and flow cytometry for activation of the probe.\nNQO1 plasmid transfection. Cells were seeded at 60% confluence in six-well plates 16 h before transfection with the desired plasmids. Transfections were carried using a plasmid expressing wild-type NQO1 (pCDNA3 NQO1-Flag, addgene, 61729) and X-tremeGENE DNA transfection reagent (Roche) according to manufacturer instructions. One μg DNA was used in each transfection and cell extracts were prepared 24 h post-transfection to confirm NQO1 protein expression by Western blotting."}, "A549 tumor": {"test_system": "A549 tumor", "assay": "In vivo real-time imaging of NQO1 in A549 xenografts with NIR-ASM", "design": "species or system nude mice", "method": "In vivo real-time imaging of NQO1 in xenografts using NIR-ASM. In vivo real-time imaging offers a powerful tool for accurately diagnosing disease and suspicious lesions with valuable spatiotemporal precision. […] Tumor xenografts were established by implanting exponentially growing lung cancer cells (A549) subcutaneously into nude mice. When tumor growth reached the log phase, NIR-ASM (5 mg/kg in PEG:H2O:EtOH (6:3:1)) was given intravenously and subjected to whole-body fluorescence imaging using an In Vivo Imager (IVIS). […] No signal was apparent in other organs of the animal. To confirm the tumor-selective targeting ability of NIR-ASM, the host organs and tumor from the mice administered with NIR-ASM were harvested and their fluorescence was analyzed ex vivo using the same IVIS. […] Furthermore, the lysates from the tumor and various organs were electrophoresed and western blotted using the NQO1 antibody. NQO1 protein at detectable levels was seen only in the tumor lysate and not in other tissues, thus, reinforcing the specificity of in-vivo imaging (FIG. 14C).\nIn vivo bioimaging. […] All animals were monitored for activity, physical condition, body weight, and tumor growth. […] Fluorescence represented in log values of radiance is photons per second per square centimeter per steradian."}, "IMR90 and HUVECs": {"test_system": "IMR90 and HUVECs", "assay": "Flow cytometry of NIR-ASM in NQO1-negative normal cell lines", "format": "cell-based, human", "method": "(§1) Detection of NQO1 in live cells. Inspired by the excellent biocompatibility, the inventors investigated its performance in both NQO1 expressing cancer cells (A549, H460) and NQO1 non-expressing normal cells (IMR90, HUVEC). All cells were incubated with NIR-ASM (10 μM) for 60 min, washed with PBS and were imaged under a confocal microscope after counterstaining the nuclei with Hoechst 33342 (FIG. 12A). […] The higher expression of NQO1 protein in A549 and H460 cells and its absence in normal cells, IMR90 and HUVEC as found with western blot analysis correlated with the probe reactivity in cells (FIG. 12B). […] Cell sorting using flow cytometry is a well-established technology in clinical diagnostics and biomedical research. To assess the applicability of the NIR-ASM to rapidly detect and quantify in both cancer and normal cells based on NQO1 expression, the probe was incubated with cell suspensions for 60 min, and about 1×10^4 cells were analyzed on a flow cytometer.\n(§2) Flow cytometry analysis. The endogenous NQO1 activity of cancer cells and normal cells was determined by flow cytometry after NIR-ASM exposure. Cells were incubated with 10 μM of NIR-ASM for 60 min, harvested by trypsinization and washed with PBS. For inhibitor study, cells were pretreated with NQO1 inhibitor ES936 (100 nM) for 6 h before adding the NIR-ASM. About 1×10^4 cells were analyzed by flow cytometry (λex=488 nm)."}, "A549 and H460 cells": {"test_system": "A549 and H460 cells", "assay": "Flow cytometry of NIR-ASM in NQO1-positive cancer cell lines", "format": "cell-based, human", "settings": "60 min, about 1×10^4 cells", "method": "as §1, §2"}}, "data": [{"smiles": "CC1=C(C)C(=O)C(C(C)(C)CC(=O)Nc2ccc(/C=C/C3=CC(=C(C#N)C#N)CC(C)(C)C3)cc2)=C(C)C1=O", "note": "[NIR-ASM, (E)-N-(4-(2-(3-(dicyanomethylene)-5,5-dimethylcyclohex-1-en-1-yl)vinyl)phenyl)-3-methyl-3-(2,4,5-trimethyl-3,6-dioxocyclohexa-1,4-dien-1-yl)butanamide]", "values": [{"measurement": "fluorescence after NQO1 gene transfection", "setting": "[1]", "result": "intense fluorescence"}, {"measurement": "time at which tumor fluorescence signal reached the plateau", "setting": "A549 tumor; 5 mg/kg intravenously", "result": 30, "unit": "min"}, {"measurement": "ex vivo fluorescence in tumor and organs", "setting": "A549 tumor; organs harvested after NIR-ASM", "result": "observed only in the tumor and not in any other major organs"}, {"measurement": "flow cytometry fluorescence signal, negative normal cells", "setting": "IMR90 and HUVECs; 60 min, about 1×10^4 cells", "result": "minimal fluorescence"}, {"measurement": "intracellular stability", "setting": "IMR90 and HUVECs; sustained low fluorescence in normal cells", "result": "intracellular stability of NIR-ASM without any non-specific activation"}, {"measurement": "flow cytometry fluorescence signal, NQO1-positive cells", "setting": "A549 and H460 cells", "result": "high-intensity unimodal distribution of signals"}]}]}
